Test results from patent US10994010B2, “Selective targeting of the CD40L/Mac-1 interaction by small peptide inhibitors and its use for the treatment of inflammation and atherogenesis” (Universitaetsklinikum Freiburg, priority 2010, dated 2021).
Positions of bridges follow the written chain, without caps; N, C: chain ends. Residues, ends and D or L forms follow the SMILES beside them.

Tests used:
TNFα-challenged mice = conditions: mouse, in vivo
Protocol: Mice received an intraperitoneal injection 5 hours before surgery of 200 ng of murine TNFα (R&D systems) and 100 μg of peptides dissolved in sterile saline 5 hours before surgery. Mice were anesthetized with an intraperitoneal injection of ketamine hydrochloride (Essex) and xylazin (Bayer) at a dose at 187.5 mg/kg of body weight and 62.5 mg/kg of body weight, respectively. The cremaster muscle was exteriorized as described previously (Iezzi et al., PNAS (2009), pp 876-881). For some experiments a catheter was placed in the jugular vein and peptides were administered during microscopy. The cremaster was superfused with thermo-controlled (36° C.) saline. Mice were placed on a heating pad to maintain body temperature. Videos were taken with an intravital microscope (AxioScope Vario, Carl Zeiss) fitted with a saline immersion objective (WPlan-APOCHROMAT 20x/1,0DIC IR, Carl Zeiss) a high sensitivity camera system (AxioCam MRm, Carl Zeiss) for 30 seconds each. Rolling leukocyte flux was defined as the number of leukocytes moving at a velocity less than erythrocytes. Leukocyte rolling velocity was measured by the average time required for leukocytes to roll over a defined length of the venule at each time point. Adherent leukocytes were defined as cells that remained stationary for at least 30 s. Rolling leukocyte flux, adhering flux were quantified by a blinded investigator.

peritoneal macrophages = test: Apoptosis and necrosis of thioglycollate-recruited peritoneal macrophages in vivo (annexin V, propidium iodide); conditions: intraperitoneal injection, after 4 hours
Protocol: (§1) (FIG. 6A, FIG. 6B) Macrophages recruited to the peritoneal cavity by thioglycollate where challenged by intraperitoneal injections of either cM7, scM7 or the blocking anti-Mac-1 antibody M1/70. […] (FIG. 4C, FIG. 4D) In vitro cultivated human umbilical vein endothelial cells (HUVECs) were incubated with cM7, scM7 or a combination of CD40L or a blocking anti-CD40 antibody. […] Data are presented as mean±SEM of at least 3 independent experiments.

C57BL/6J mice [1] = test: Tail bleeding time; conditions: mouse, in vivo
Protocol: (§2) Potential side effects were checked in an in vivo thrombosis model. 3-4 weeks old C57BL/6J mice received an intraperitoneal injection of either sterile saline (100 μl), the peptides cM7, scM7, or the indicated antibodies. A mesenteric arteriole was chosen and injured with ferrichloride. Platelets were stained by retroorbital injection of rhodamine […] and visualized through an intravital microscope (AxioScope Vario, Carl Zeiss). Vessel occlusion time and thrombus embolization rate was analyzed. Tail bleeding time was determined as previously reported (Andre et al., Loc. Cit.).

C57BL/6J mice [2] = test: In vivo thrombosis model (ferrichloride injury of mesenteric arteriole)
Protocol: as §2

[3] = test system: human umbilical vein endothelial cells (HUVECs); test: Cytotoxicity and apoptosis in cultivated HUVECs (caspase 3/7 activity, LDH release); type: cell-based
Protocol: as §1

LDLr−/− mice = test: Atherogenesis study, high-cholesterol diet 20 weeks; type: in vivo
Protocol: Atherogenesis study. Eight-week-old male LDL-receptor-deficient (LDLr^−/−) mice (Jackson Laboratories) consuming a high-cholesterol diet (HCD) were treated with intraperitoneal injections of the peptides cM7, scM7 (Peptide Specialty Laboratory) in a dose of 100 μg, or sterile saline three times a week. After 20 weeks blood samples were taken for flow cytometric analysis of leukocyte subpopulations, cholesterol and triglyceride plasma levels, as well as for the determination of plasma cytokines and chemokines. Blood pressure was determined by a non-invasive blood pressure measurement (NIBP, Harvard Apparatus). Mice were euthanized, and aortic roots and arches were frozen in OCT (OCT compound; Tissue-Tek). Thoracic and abdominal aortas were fixed in 10% buffered formalin. Serial cryostat sections (6 μm) of mouse aortic tissues were fixed in acetone, and air-dried. Nonspecific binding was blocked with 5% species-appropriate normal serum (Vector Laboratories). Sections were then incubated with primary antibodies diluted in phosphate-buffered saline, supplemented with 5% species-appropriate normal serum. Incubation with secondary antibodies was followed by avidin-biotin complex (ABC, Vector Laboratories). Antibody binding was visualized with 3-amino-9-ethylcarbazole (AEC; Dako), followed by counterstaining with Gill's hematoxylin solution (Sigma-Aldrich). Control stainings included staining with the respective IgG isotypes (Pharmingen, Dako). Antibodies used were rat anti-mouse Mac-3 for macrophage specific staining, anti α-actin for smooth muscle cell specific staining (Dako). For the visualization of Type I Collagen, Formalin-fixed frozen sections were incubated for 4 hours in a freshly prepared 0.1% solution of picrosirius red (Polysciences) in saturated aqueous picric acid. After rinsing in 0.01 N HCl and distilled water, sections were dehydrated in 70% ethanol and mounted in Permount (Vector Laboratories). Picrosirius red staining was analyzed by polarization microscopy. As the color of collagen fibers assessed in the picrosirius red staining depends on the thickness of collagen fibers and changes from green (thin fibers) to yellow, orange, and red (thick fibers), color distribution in stained collagen sections was quantified. Deposition of lipids was determined by oil red O staining after formalin fixation in aortic sections or in en face preparations of the abdominal aorta. To quantify the composition of the aortic lesions, sections of the aortic tissue were analyzed microscopically in all mice. Within the aortic root, lesion areas were analyzed in cross-sections obtained at the level of all 3 leaflets of the aortic valve, immediately proximal to the right coronary artery ostium. The total aortic wall area, lesion area in the aortic root, and the percentage of area stained for macrophages, lipids, SMCs, or collagen were determined via computer-assisted image quantification (ImagePro, Media Cybernetics).

[4] = test system: CD40L-transfected murine fibroblasts; test: Flow cytometry: binding of FITC-cM7 to CD40L- or mock-transfected murine fibroblasts; type: cell-based
Protocol: Flow cytometric analysis, platelet activation assays, and quantification of leukocyte-platelet aggregates, were performed as previously described (Zirlik et al., 2007). Binding of cM7 to CD40L-expressing murine fibroblasts was determined by quantification of FITC-coupled cM7. Binding of CD40L to Mac-1 expressing CHO-cells or human leukocytes was performed by incubation with CD40L (10 μg/ml) and subsequent detection with anti-PentaHis antibody (Qiagen).
Flow cytometric analyses, as well as platelet activation assays and quantification of leukocyte-platelet aggregates were performed as previously described (Quezada et al., Ann. Rev. Immunol. (2004), pp 307-328). Briefly, murine blood samples were taken by intracardiac puncture. Red cells were lyzed in 155 mM NH4Cl, 5.7 mM K2HPO4, 0.1 mM EDTA, pH 7.3. […] Antibodies for epitope specific fluorescence-activated cell sorting (FACS Calibur, BD) included anti-CD11b, anti-CD115, anti-Gr-1, anti-CD4, anti-CD8, anti-CD20, anti-CD41, anti-CD62P, anti-CD54, anti-CD102, and anti-CD106 (all from Ebioscience). Binding of cM7 to CD40L- or mock-transfected murine fibroblasts was determined by incubation of FITC-cM7 at the indicated concentrations with cells for 30 min at 37° C. and subsequent quantification of the fluorescence in the FL-1 channel. […]

[5] = molecular target: T1, CD40L binding to Mac-1 I-domain (Homo sapiens, UniProt P29965); test: Solid phase binding assay: blocking of CD40L binding to immobilized Mac-1 I-domain by peptides; conditions: peptides 50 μM
T1 construct: inserting the coding DNA for amino acids E^108 to L^261 in pHOG-21; His (N); trimerization domain (N); made in house
T1 sequence (P29965 108-261): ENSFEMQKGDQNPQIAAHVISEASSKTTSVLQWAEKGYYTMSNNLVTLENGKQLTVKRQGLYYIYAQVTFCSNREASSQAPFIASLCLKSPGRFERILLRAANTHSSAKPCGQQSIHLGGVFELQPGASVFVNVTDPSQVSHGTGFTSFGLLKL
Protocol: Solid phase binding assay. Recombinant CD40L was incubated with immobilized Mac-1 I-domain in the presence or absence of blocking peptides. Binding of sCD40L was detected by addition of anti-cmyc-HRP (Invitrogen), TMB-substrate (Pierce), and colorimetric reaction. Alternatively, CD40L (Provitro) was immobilized, and binding of the recombinant Mac-1 I-domain was quantified by addition of anti-His-Biotin (Qiagen), and HRP-coupled streptavidin (Pierce). For the binding to immobilized peptides, CD40L was biotinylated with the Micro Biotinylation Kit (Sigma). A mixture of equal molarities of all peptides served as the positive control in this assay.
The recombinant Mac-1 I-domain was immobilized in 96-well plates (Nunc) in PBS at 4° C. overnight. After blocking in 2% BSA/PBS and subsequent washing with PBS, recombinant CD40L was added to the wells in the indicated concentrations and incubated for 2 hours at 37° C. Effect of the peptides M1-M8 was assessed by incubating CD40L (10 μg/ml) in the presence of peptides (50 μM). After removing of unbound CD40L by washing with 0.1% Tween-20/PBS, anti-c-myc-HRP (Invitrogen) was added and incubated for 2 hours at room temperature. Binding was quantified by addition of TMB-substrate (Pierce), colorimetric reaction at 450 nm. Alternatively, CD40L without a His-tag (Provitro) was immobilized and blocked as described above. Binding of the recombinant Mac-1 I-domain was quantified by addition of anti-His-Biotin monoclonal antibody (Qiagen), HRP-coupled streptavidin (Pierce) and colorimetric reaction at 450 nm. For the specific binding of the Mac-1 I-domain BSA-coated wells were subtracted from the CD40L-coated. Kd was estimated using a one-site binding hyperbola nonlinear regression model with the Software Prism (Graphpad). For quantification of the binding of CD40L to peptides, peptides were immobilized in 96-well plates overnight at 4° C. in 50 mM sodium carbonate, pH 10.6. CD40L was biotinylated using the Micro-Biotinylation-Kit (Sigma) following the manufacturer's instructions and detected by HRP-coupled streptavidin (Pierce) and colorimetric reaction. A mixture of equal molarities of all peptides served as positive control. Absorbance on BSA-coated wells served as negative control and was subtracted.

Compound: CC(C)C[C@@H]1NC(=O)[C@H](CCC(N)=O)NC(=O)[C@H](CCC(=O)O)NC(=O)[C@@H](N)CSSC[C@@H](C(=O)O)NC(=O)[C@H](CC(C)C)NC(=O)[C@H]([C@@H](C)O)NC(=O)[C@H](CCCCN)NC(=O)[C@H](CO)NC(=O)[C@H](CCCCN)NC(=O)[C@H](CCCCN)NC1=O [cM7] (H-CEQLKKSKTLC-OH; disulfide 1-11 (inferred); N-terminus and C-terminus assumed)
- Heart rate (TNFα-challenged mice): 628 ± 63 bpm
- Leukocytes (TNFα-challenged mice): 11.9 ± 2.3 ×1000/μl
- Platelets (TNFα-challenged mice): 552 ± 174 ×1000/μl
- Systolic blood pressure (TNFα-challenged mice): 97.6 ± 6.5 mmHg
- apoptotic or necrotic cells in vivo (annexin V binding, propidium iodide loading) (peritoneal macrophages): did not cause an increase of apoptotic or necrotic cells in vivo
- effect on bleeding time (C57BL/6J mice [1]): did not affect bleeding time
- effect on vessel occlusion time (C57BL/6J mice [2]; model of arterial thrombosis): did not prolong vessel occlusion time
- effect on thromboembolization rate (C57BL/6J mice [2]; mouse, in vivo): only caused a slight increase in thromboembolization rate
- apoptosis of endothelial cells, LDH-release ([3]; CD40L primed HUVECs): slightly increased in CD40L primed HUVECs
- cellular cytotoxicity, caspase 3/7-activity ([3]; HUVECs, 24 hours): did not induce cellular cytotoxicity
- Leukocytes (LDLr−/− mice; AF): 4.54 ± 1.28 ×1000/μl
- Platelets (LDLr−/− mice; AF): 486 ± 198 ×1000/μl
- Weight (LDLr−/− mice; AF: after feeding): 35.7 ± 3.8 g
- Leukocytes (LDLr−/− mice; BF): 11.2 ± 3.1 ×1000/μl
- Platelets (LDLr−/− mice; BF): 529 ± 53 ×1000/μl
- Weight (LDLr−/− mice; BF: before feeding): 23.4 ± 2.3 g
- immunologic characteristics (T cells, B cells, cytokines) (LDLr−/− mice; long-term treatment): Any changes in immunologic characteristics were not observed

Compound: C-EQLKKSKTL-C (CEQLKKSKTLC; bridge N-C; also: cyclised through the flanking Cys, bond type not given here) [FITC-labeled cM7]
- binding to murine fibroblasts over-expressing CD40L [4]: concentration-dependently bound to murine fibroblasts over-expressing CD40L
- binding to mock-transfected fibroblasts ([4]; control cells): but not to respective mock-transfected control cells

Compound: DAFRSEKSRQELNTI (therapeutically active peptide) [Peptide M4]
- blocking of CD40L / Mac-1 I-domain binding [5]: emerged as potential candidate inhibitors

Compound: FQVNNFEALKT (therapeutically active peptide) [Peptide M5]
- blocking of CD40L / Mac-1 I-domain binding [5]: emerged as potential candidate inhibitors

Compound: KFGDPLGYEDVIPEADR (therapeutically active peptide) [Peptide M3]
- blocking of CD40L / Mac-1 I-domain binding [5]: emerged as potential candidate inhibitors
